According to US8367655B2, “Pyridoindolobenzox—and thiazepine derivatives and uses thereof” (Daya Drug Discoveries, Inc., priority 2009, dated 2013):

How the values were obtained:
[1] = biological target: 5-HT2A receptor (Homo sapiens, UniProt P28223); assay: Serotonin and dopamine receptor binding: 5-HT2A
[2] = biological target: D2 receptor (Homo sapiens, UniProt P14416); assay: Serotonin and dopamine receptor binding: D2
[3] = biological target: T1, 5-HT2C receptor (Homo sapiens, UniProt P28335); assay: Serotonin and dopamine receptor binding: 5-HT2C
T1 sequence (P28335 33-458): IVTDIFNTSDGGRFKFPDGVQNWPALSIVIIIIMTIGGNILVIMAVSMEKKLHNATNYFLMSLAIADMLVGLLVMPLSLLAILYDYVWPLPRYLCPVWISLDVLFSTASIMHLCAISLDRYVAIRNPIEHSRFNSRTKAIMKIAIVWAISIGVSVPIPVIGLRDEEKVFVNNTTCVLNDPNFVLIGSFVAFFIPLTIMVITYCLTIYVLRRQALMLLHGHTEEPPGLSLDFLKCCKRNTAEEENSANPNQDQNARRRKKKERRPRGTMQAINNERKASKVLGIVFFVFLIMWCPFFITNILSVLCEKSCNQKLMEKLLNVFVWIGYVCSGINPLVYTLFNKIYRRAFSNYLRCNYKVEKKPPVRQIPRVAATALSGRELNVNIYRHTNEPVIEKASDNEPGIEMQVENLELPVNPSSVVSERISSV

[4] = test system: rats; assay: Amphetamine-induced motor activity; type: in vivo
Method: Effects of compound 2 on amphetamine-induced motor activity (FIG. 4 Graph). All rats were habituated to the motor box for 30 min followed by injection of compound 2 or vehicle. After 30 min all rats were injected with 1 mg/kg, i.p. amphetamine (a dose that is known to elevate locomotion in rats) and their motor activity was recorded for 2 hr.

[5] = test system: rats; assay: Pilot dose-selection study (catalepsy, locomotion); type: in vivo
[6] = test system: rats; assay: Amphetamine-induced sensorimotor gating deficits (prepulse inhibition, PPI); type: in vivo; settings: 1 mg/kg ip, amphetamine 3 mg/kg ip, 120 dB pulse, 71 dB pre-pulse, p<0.01
Method: Effects of compound 2 on amphetamine-induced sensorimotor gating deficits (FIG. 4 Table). Once the compound 2 dose range was determined by motor assessments, a separate group of rats were used to study PPI. Rats were treated with vehicle (75% DMSO) or DDD-016 in the DMSO vehicle; 30 min later amphetamine (3 mg/kg ip) or saline was administered, and the startle session was initiated after an additional 30 min. (The 3 mg/kg dose of amphetamine is sufficient to induced robust deficits in PPI; 1 mg/kg is subtrheshold; data not shown.) Shown are startle data from a 120 dB pulse, preceded 100 ms by a 71 dB pre-pulse.

Sequence of 5-HT2A receptor (P28223 whole entry): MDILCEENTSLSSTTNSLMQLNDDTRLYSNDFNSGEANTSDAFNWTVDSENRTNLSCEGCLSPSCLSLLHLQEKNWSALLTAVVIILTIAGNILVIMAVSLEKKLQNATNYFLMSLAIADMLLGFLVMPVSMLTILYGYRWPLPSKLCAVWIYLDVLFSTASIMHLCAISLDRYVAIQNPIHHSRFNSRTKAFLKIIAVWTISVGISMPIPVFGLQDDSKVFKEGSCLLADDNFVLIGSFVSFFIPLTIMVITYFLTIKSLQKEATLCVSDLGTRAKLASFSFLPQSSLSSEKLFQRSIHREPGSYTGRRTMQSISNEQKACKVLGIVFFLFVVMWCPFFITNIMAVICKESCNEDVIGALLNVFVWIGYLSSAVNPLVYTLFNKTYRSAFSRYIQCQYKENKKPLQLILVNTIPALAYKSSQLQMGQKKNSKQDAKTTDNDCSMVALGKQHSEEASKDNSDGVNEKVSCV
Sequence of D2 receptor (P14416 whole entry): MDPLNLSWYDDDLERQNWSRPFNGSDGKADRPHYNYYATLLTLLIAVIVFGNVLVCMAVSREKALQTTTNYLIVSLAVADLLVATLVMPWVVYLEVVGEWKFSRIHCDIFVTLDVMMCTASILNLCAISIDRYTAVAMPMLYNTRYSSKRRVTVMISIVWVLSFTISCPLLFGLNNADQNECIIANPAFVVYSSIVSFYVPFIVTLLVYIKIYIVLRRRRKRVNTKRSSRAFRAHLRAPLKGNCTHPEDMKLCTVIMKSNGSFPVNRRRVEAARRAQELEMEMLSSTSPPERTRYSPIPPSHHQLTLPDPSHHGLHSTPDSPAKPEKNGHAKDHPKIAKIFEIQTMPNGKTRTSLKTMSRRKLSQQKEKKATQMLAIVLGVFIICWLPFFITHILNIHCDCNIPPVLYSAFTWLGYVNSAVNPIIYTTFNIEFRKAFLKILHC

Row | IC50 [1] [nM] | IC50 [2] [nM] | IC50 [3] [nM] | Compound | receptor binding activity (in words) ([1]; stated jointly for 5-HT2A, 5-HT2C and D2 receptors) | horizontal activity, comparison of doses ([4]; 3 mg/kg vs 10 mg/kg, ANOVA with post hoc Newman Keuls, p<0.05) | effect on amphetamine-induced motor activity ([4]; 10 mg/kg, 30 min before 1 mg/kg i.p. amphetamine, activity recorded 2 hr) | locomotor effect ([5]; 3 mg/kg, vs vehicle (75% DMSO)) | locomotor effect ([5]; 10 mg/kg) | catalepsy ([5]; 30 mg/kg ip, without a loss of right reflex) | effect on amphetamine-induced % PPI deficit [6]
1 | 5 | 8 | 80 | O=C(CCCN1CCc2c(c3cccc4c3n2-c2ccccc2CS4)C1)c1ccc(F)cc1 [Compound 6] | – | – | – | – | – | – | –
2 | 1 | 80 | 10 | CN1CCc2c(c3cccc4c3n2-c2ccccc2CS4)C1 [Compound 2] | – | difference between 3 mg/kg and 10 mg/kg | trend for 10 mg/kg of 2 to reduce the effects of amphetamine | did not differentiate from vehicle | Some locomotor reduction | robust catalepsy | blunted this deficit
3 | 8 | 500 | 50 | CN1CCc2c(c3cccc4c3n2-c2ccccc2CO4)C1 [Compound 9] | – | – | – | – | – | – | –

Row | Compound | IC50 [1] [nM] | IC50 [2] [nM] | IC50 [3] [nM] | receptor binding activity (in words) ([1]; stated jointly for 5-HT2A, 5-HT2C and D2 receptors) | horizontal activity, comparison of doses ([4]; 3 mg/kg vs 10 mg/kg, ANOVA with post hoc Newman Keuls, p<0.05) | effect on amphetamine-induced motor activity ([4]; 10 mg/kg, 30 min before 1 mg/kg i.p. amphetamine, activity recorded 2 hr) | locomotor effect ([5]; 3 mg/kg, vs vehicle (75% DMSO)) | locomotor effect ([5]; 10 mg/kg) | catalepsy ([5]; 30 mg/kg ip, without a loss of right reflex) | effect on amphetamine-induced % PPI deficit [6]
4 | CN1CC[C@@H]2[C@@H](C1)c1cccc3c1N2c1ccccc1CS3 [Compound 4] | 3 | 20 | 5 | most potent amongst all | – | – | – | – | – | –
5 | CN1CC[C@H]2[C@@H](C1)c1cccc3c1N2c1ccccc1CS3 [Compound 3] | 5 | 500 | 15 | – | – | – | – | – | – | –
